Test results published in patent US10738056B2 (Aduro BioTech, Inc., priority 2017, dated 2020).

What was measured:
[1] = molecular target: Human cGAS amino acids 155-522 (Homo sapiens (Human), UniProt Q8N884); assay: cGAS biochemical activity assay (ATP remaining, Kinase-Glo Max luminescence); conditions: human cGAS 155-522, ATP remaining (Kinase-Glo Max); read-out: cGAS IC50
[2] = tested on: cGAS/STING pathway in THP1 cells; assay: THP1 cell-based cGAS/STING pathway activity assay (IRF-3-linked luciferase reporter); conditions: Homo sapiens, THP-1
Method in brief: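 THP1 cells carrying an IRF-3-driven luciferase reporter were read across a range of compound concentrations, and IC50 values were derived from these concentration responses; the assay upper limit was 100 μM.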

Sequence of Human cGAS amino acids 155-522 (Q8N884 157-522): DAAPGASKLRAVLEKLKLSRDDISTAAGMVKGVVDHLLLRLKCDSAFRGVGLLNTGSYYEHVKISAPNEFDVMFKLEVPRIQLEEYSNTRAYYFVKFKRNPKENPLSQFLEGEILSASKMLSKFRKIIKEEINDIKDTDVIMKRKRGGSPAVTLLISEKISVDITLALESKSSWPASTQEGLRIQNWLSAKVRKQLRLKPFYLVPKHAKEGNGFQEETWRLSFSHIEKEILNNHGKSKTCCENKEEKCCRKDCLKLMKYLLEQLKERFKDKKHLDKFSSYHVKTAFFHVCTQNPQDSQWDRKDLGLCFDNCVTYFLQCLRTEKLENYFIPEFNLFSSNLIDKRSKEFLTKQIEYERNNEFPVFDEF

Row | SMILES | IC50 [1] [µM] | IC50 [2] [µM]
1 | COc1cccc(NC(=O)Cc2c(C)[nH]c3c(-c4ccccc4)c(C(F)(F)F)nn3c2=O)c1 [Compound B1011, N-(3-methoxyphenyl)-2-(5-methyl-7-oxo-3-phenyl-2-(trifluoromethyl)-4,7-dihydropyrazolo[1,5-a]pyrimidin-6-yl)acetamide] | 20 to 250 | 20 to 100
2 | Cc1[nH]c2c(-c3ccccc3)c(C(F)(F)F)nn2c(=O)c1-c1nc2ccccc2[nH]1 [Compound C1005, 6-(1H-benzo[d]imidazol-2-yl)-5-methyl-3-phenyl-2-(trifluoromethyl)pyrazolo[1,5-a]pyrimidin-7(4H)-one] | 20 to 250 | > 100
3 | Cc1[nH]c2c(-c3ccccc3)c(C(F)(F)F)nn2c(=O)c1-c1ncc(C2CCCC2)o1 [Compound C1010, 6-(5-cyclopentyloxazol-2-yl)-5-methyl-3-phenyl-2-(trifluoromethyl)pyrazolo[1,5-a]pyrimidin-7(4H)-one] | > 250 | < 20
4 | Cc1[nH]c2c(-c3ccccc3)c(C(F)(F)F)nn2c(=O)c1-c1nc2ccccc2o1 [Compound C1011, 6-(benzo[d]oxazol-2-yl)-5-methyl-3-phenyl-2-(trifluoromethyl)pyrazolo[1,5-a]pyrimidin-7(4H)-one] | > 250 | < 20
5 | COc1ccc2oc(-c3c(C)[nH]c4c(-c5ccccc5)c(C(F)(F)F)nn4c3=O)nc2c1 [Compound C1012, 6-(5-methoxybenzo[d]oxazol-2-yl)-5-methyl-3-phenyl-2-(trifluoromethyl)pyrazolo[1,5-a]pyrimidin-7(4H)-one] | > 250 | < 20
6 | COCc1[nH]c2c(-c3ccccc3)c(C(F)(F)F)nn2c(=O)c1-c1ncc(C2CCCC2)o1 [Compound C1013, 6-(5-cyclopentyloxazol-2-yl)-5-(methoxymethyl)-3-phenyl-2-(trifluoromethyl)pyrazolo[1,5-a]pyrimidin-7(4H)-one] | > 250 | < 20
7 | Cc1[nH]c2c(-c3ccccc3)c(C(F)(F)F)nn2c(=O)c1-c1nc2c(o1)CCCC2 [Compound C1015, 5-methyl-3-phenyl-6-(4,5,6,7-tetrahydrobenzo[d]oxazol-2-yl)-2-(trifluoromethyl)pyrazolo[1,5-a]pyrimidin-7(4H)-one] | > 250 | < 20

Further lines, results first:

Row | IC50 [1] [µM] | IC50 [2] [µM] | SMILES
8 | 20 to 250 | 20 to 100 | COc1ccccc1NC(=O)Cc1c(C)[nH]c2c(-c3ccccc3)c(C(F)(F)F)nn2c1=O [Compound B1010, N-(2-methoxyphenyl)-2-(5-methyl-7-oxo-3-phenyl-2-(trifluoromethyl)-4,7-dihydropyrazolo[1,5-a]pyrimidin-6-yl)acetamide]
9 | < 20 | 20 to 100 | CC(=O)Nc1cccc2nc(-c3c(C)[nH]c4c(-c5ccccc5)c(C(F)(F)F)nn4c3=O)[nH]c12 [Compound C1009, N-(2-(5-methyl-7-oxo-3-phenyl-2-(trifluoromethyl)-4,7-dihydropyrazolo[1,5-a]pyrimidin-6-yl)-1H-benzo[d]imidazol-7-yl)acetamide]
10 | < 20 | < 20 | COc1ccc2[nH]c(-c3c(C)[nH]c4c(-c5ccccc5)c(C(F)(F)F)nn4c3=O)nc2c1 [Compound C1016, 6-(5-methoxy-1H-benzo[d]imidazol-2-yl)-5-methyl-3-phenyl-2-(trifluoromethyl)pyrazolo[1,5-a]pyrimidin-7(4H)-one]
11 | < 20 | 20 to 100 | Cc1[nH]c2c(-c3ccccc3)c(C(F)(F)F)nn2c(=O)c1-c1nc2c([nH]1)CCCC2 [Compound C1017, 5-methyl-3-phenyl-6-(4,5,6,7-tetrahydro-1H-benzo[d]imidazol-2-yl)-2-(trifluoromethyl)pyrazolo[1,5-a]pyrimidin-7(4H)-one]
12 | < 20 | > 100 | COc1cccc2[nH]c(-c3c(C)[nH]c4c(-c5ccccc5)c(C(F)(F)F)nn4c3=O)nc12 [Compound C1018, 6-(4-methoxy-1H-benzo[d]imidazol-2-yl)-5-methyl-3-phenyl-2-(trifluoromethyl)pyrazolo[1,5-a]pyrimidin-7(4H)-one]
